The source made the active and inactive calls. No cut-off for these calls is given here.
Tests used:
Enterococcus faecium [1] = assay: Potentiation of geneticin-induced antibacterial activity against Enterococcus faecium ATCC 700221 assessed as minimum modulatory concentration up to 32 uM measured after 16 hrs in presence of MIC/4 geneticin; type: functional; details: ATCC 700221, 16 h, read-out: MEC
Klebsiella pneumoniae [2] = assay: Toxicity in Klebsiella pneumoniae ATCC 13883 up to 32 uM measured after 16 hrs; type: organism-based
Escherichia coli [3] = assay: Potentiation of geneticin-induced antibacterial activity against Escherichia coli ATCC 43894 assessed as minimum modulatory concentration up to 32 uM measured after 16 hrs in presence of MIC/4 geneticin; type: functional; details: ATCC 43894, 16 h, read-out: MEC
Staphylococcus aureus [4] = assay: Potentiation of ciprofloxacin-induced antibacterial activity against Staphylococcus aureus ATCC 33592 assessed as minimum modulatory concentration up to 32 uM measured after 16 hrs in presence of MIC/4 ciprofloxacin; type: functional; details: ATCC 33592, 16 h, read-out: MEC
Pseudomonas aeruginosa [5] = assay: Potentiation of geneticin-induced antibacterial activity against Pseudomonas aeruginosa ATCC BAA-2108 assessed as minimum modulatory concentration up to 32 uM measured after 16 hrs in presence of MIC/4 geneticin; type: functional; details: ATCC BAA-2108, 16 h, read-out: MEC
Staphylococcus aureus [6] = assay: Potentiation of geneticin-induced antibacterial activity against Staphylococcus aureus ATCC 33592 assessed as minimum modulatory concentration up to 32 uM measured after 16 hrs in presence of MIC/4 geneticin; type: functional; details: ATCC 33592, 16 h, read-out: MEC
Staphylococcus aureus [7] = assay: Potentiation of erythromycin-induced antibacterial activity against Staphylococcus aureus ATCC 33592 assessed as minimum modulatory concentration up to 32 uM measured after 16 hrs in presence of MIC/4 erythromycin; type: functional; details: ATCC 33592, 16 h, read-out: MEC
Klebsiella pneumoniae [8] = assay: Potentiation of ciprofloxacin-induced antibacterial activity against Klebsiella pneumoniae ATCC 13883 assessed as minimum modulatory concentration up to 32 uM measured after 16 hrs in presence of MIC/4 ciprofloxacin; type: functional; details: ATCC 13883, 16 h, read-out: MEC
Enterococcus faecium [9] = assay: Potentiation of erythromycin-induced antibacterial activity against Enterococcus faecium ATCC 700221 assessed as minimum modulatory concentration up to 32 uM measured after 16 hrs in presence of MIC/4 erythromycin; type: functional; details: ATCC 700221, 16 h, read-out: MEC
Klebsiella pneumoniae [10] = assay: Potentiation of tetracycline-induced antibacterial activity against Klebsiella pneumoniae ATCC 13883 assessed as minimum modulatory concentration up to 32 uM measured after 16 hrs in presence of MIC/4 tetracycline; type: functional; details: ATCC 13883, 16 h, read-out: MEC
Enterococcus faecium [11] = assay: Potentiation of ciprofloxacin-induced antibacterial activity against Enterococcus faecium ATCC 700221 assessed as minimum modulatory concentration up to 32 uM measured after 16 hrs in presence of MIC/4 ciprofloxacin; type: functional; details: ATCC 700221, 16 h, read-out: MEC
Pseudomonas aeruginosa [12] = assay: Potentiation of tetracycline-induced antibacterial activity against Pseudomonas aeruginosa ATCC BAA-2108 assessed as minimum modulatory concentration up to 32 uM measured after 16 hrs in presence of MIC/4 tetracycline; type: functional; details: ATCC BAA-2108, 16 h, read-out: MEC
Pseudomonas aeruginosa [13] = assay: Potentiation of erythromycin-induced antibacterial activity against Pseudomonas aeruginosa ATCC BAA-2108 assessed as minimum modulatory concentration up to 32 uM measured after 16 hrs in presence of MIC/4 erythromycin; type: functional; details: ATCC BAA-2108, 16 h, read-out: MEC
Macrophage cell line [14] = assay: Antiinflammatory activity in human PBMC-differentiated macrophages assessed as inhibition of LPS-induced IL-8 production at 0.01 to 10 uM measured after 24 hrs by ELISA; type: functional, cell-based
Macrophage cell line [15] = assay: Induction of TNFalpha production in human PBMC-differentiated macrophages after 24 hrs by ELISA; type: cell-based
Pseudomonas aeruginosa [16] = assay: Toxicity in Pseudomonas aeruginosa ATCC BAA-2108 up to 32 uM measured after 16 hrs; type: organism-based; details: in vitro
Escherichia coli [17] = assay: Potentiation of tetracycline-induced antibacterial activity against Escherichia coli ATCC 43894 assessed as minimum modulatory concentration up to 32 uM measured after 16 hrs in presence of MIC/4 tetracycline; type: functional; details: ATCC 43894, 16 h, read-out: MEC
Streptococcus pyogenes [18] = assay: Potentiation of geneticin-induced antibacterial activity against Streptococcus pyogenes ATCC 14289 assessed as minimum modulatory concentration up to 32 uM measured after 16 hrs in presence of MIC/4 geneticin; type: functional; details: ATCC 14289, 16 h, read-out: MEC
Macrophage cell line [19] = assay: Induction of IL-1beta production in human PBMC-differentiated macrophages after 24 hrs by ELISA; type: cell-based
Pseudomonas aeruginosa [20] = assay: Potentiation of methicillin-induced antibacterial activity against Pseudomonas aeruginosa ATCC BAA-2108 assessed as minimum modulatory concentration up to 32 uM measured after 16 hrs in presence of MIC/4 methicillin; type: functional; details: ATCC BAA-2108, 16 h, read-out: MEC
Escherichia coli [21] = assay: Potentiation of methicillin-induced antibacterial activity against Escherichia coli ATCC 43894 assessed as minimum modulatory concentration up to 32 uM measured after 16 hrs in presence of MIC/4 methicillin; type: functional; details: ATCC 43894, 16 h, read-out: MEC
Klebsiella pneumoniae [22] = assay: Potentiation of erythromycin-induced antibacterial activity against Klebsiella pneumoniae ATCC 13883 assessed as minimum modulatory concentration up to 32 uM measured after 16 hrs in presence of MIC/4 erythromycin; type: functional; details: ATCC 13883, 16 h, read-out: MEC
Escherichia coli [23] = assay: Potentiation of ciprofloxacin-induced antibacterial activity against Escherichia coli ATCC 43894 assessed as minimum modulatory concentration up to 32 uM measured after 16 hrs in presence of MIC/4 ciprofloxacin; type: functional; details: ATCC 43894, 16 h, read-out: MEC
Streptococcus pyogenes [24] = assay: Potentiation of ciprofloxacin-induced antibacterial activity against Streptococcus pyogenes ATCC 14289 assessed as minimum modulatory concentration up to 32 uM measured after 16 hrs in presence of MIC/4 ciprofloxacin; type: functional; details: ATCC 14289, 16 h, read-out: MEC
Enterococcus faecium [25] = assay: Toxicity in Enterococcus faecium ATCC 700221 up to 32 uM measured after 16 hrs; type: organism-based; details: in vitro
Pseudomonas aeruginosa [26] = assay: Potentiation of ciprofloxacin-induced antibacterial activity against Pseudomonas aeruginosa ATCC BAA-2108 assessed as minimum modulatory concentration up to 32 uM measured after 16 hrs in presence of MIC/4 ciprofloxacin; type: functional; details: ATCC BAA-2108, 16 h, read-out: MEC
Macrophage cell line [27] = assay: Cytotoxicity against human PBMC-differentiated macrophages treated for 24 hrs followed by compound washout and measured after 48 hrs by MTT assay; type: cell-based
Enterococcus faecium [28] = assay: Potentiation of methicillin-induced antibacterial activity against Enterococcus faecium ATCC 700221 assessed as minimum modulatory concentration up to 32 uM measured after 16 hrs in presence of MIC/4 methicillin; type: functional; details: ATCC 700221, 16 h, read-out: MEC
Streptococcus pyogenes [29] = assay: Potentiation of erythromycin-induced antibacterial activity against Streptococcus pyogenes ATCC 14289 assessed as minimum modulatory concentration up to 32 uM measured after 16 hrs in presence of MIC/4 erythromycin; type: functional; details: ATCC 14289, 16 h, read-out: MEC
Macrophage cell line [30] = assay: Induction of prostaglandin production in human PBMC-differentiated macrophages after 24 hrs by ELISA; type: cell-based
Streptococcus pyogenes [31] = assay: Potentiation of methicillin-induced antibacterial activity against Streptococcus pyogenes ATCC 14289 assessed as minimum modulatory concentration up to 32 uM measured after 16 hrs in presence of MIC/4 methicillin; type: functional; details: ATCC 14289, 16 h, read-out: MEC
Escherichia coli [32] = assay: Toxicity in Escherichia coli ATCC 43894 up to 32 uM measured after 16 hrs; type: organism-based
Macrophage cell line [33] = assay: Antiinflammatory activity in human PBMC-differentiated macrophages assessed as inhibition of LPS-induced prostaglandin production at 0.01 to 10 uM measured after 24 hrs by ELISA; type: functional, cell-based

| SMILES | minimal effective concentration (Enterococcus faecium [1]) [µM] | Activity (Klebsiella pneumoniae [2]) | minimal effective concentration (Escherichia coli [3]) [µM] | minimal effective concentration (Staphylococcus aureus [4]) [µM] | minimal effective concentration (Pseudomonas aeruginosa [5]) [µM] | minimal effective concentration (Staphylococcus aureus [6]) [µM] | minimal effective concentration (Staphylococcus aureus [7]) [µM] | minimal effective concentration (Klebsiella pneumoniae [8]) [µM] | minimal effective concentration (Enterococcus faecium [9]) [µM] | minimal effective concentration (Klebsiella pneumoniae [10]) [µM] | minimal effective concentration (Enterococcus faecium [11]) [µM] | minimal effective concentration (Pseudomonas aeruginosa [12]) [µM] | minimal effective concentration (Pseudomonas aeruginosa [13]) [µM] | Activity (Macrophage cell line [15]) | Activity (Pseudomonas aeruginosa [16]) | minimal effective concentration (Escherichia coli [17]) [µM] | minimal effective concentration (Streptococcus pyogenes [18]) [µM] | Activity (Macrophage cell line [19]) | minimal effective concentration (Pseudomonas aeruginosa [20]) [µM] | minimal effective concentration (Escherichia coli [21]) [µM] | also measured |
| --- | --- | --- | --- | --- | --- | --- | --- | --- | --- | --- | --- | --- | --- | --- | --- | --- | --- | --- | --- | --- | --- |
| O=C(O)c1cc(-c2ccccc2)nc(-c2ccccc2)c1O | 8 | Non-Toxic | > 32 | 16 | > 32 | 8 | 2 | > 32 | 2 | > 32 | > 32 | > 32 | 8 | Non-Toxic | Non-Toxic | > 32 | 4 | Non-Toxic | 8 | > 32 | inhibition (Macrophage cell line [14]): inactive; minimal effective concentration (Klebsiella pneumoniae [22]): > 32 µM; minimal effective concentration (Escherichia coli [23]): > 32 µM; minimal effective concentration (Streptococcus pyogenes [24]): > 32 µM; Activity (Enterococcus faecium [25]): Non-Toxic; minimal effective concentration (Pseudomonas aeruginosa [26]): 8 µM; IC50 (Macrophage cell line [27]): 81.2 µM; minimal effective concentration (Enterococcus faecium [28]): 2 µM; minimal effective concentration (Streptococcus pyogenes [29]): 4 µM; Activity (Macrophage cell line [30]): Non-Toxic; minimal effective concentration (Streptococcus pyogenes [31]): 2 µM; Activity (Escherichia coli [32]): Non-Toxic |
| O=C(O)c1cc(-c2ccc(F)cc2F)ccc1O [DIFLUNISAL] | > 32 | Non-Toxic | > 32 | > 32 | > 32 | > 32 | > 32 | > 32 | > 32 | > 32 | > 32 | > 32 | > 32 | Non-Toxic | Non-Toxic | > 32 | > 32 | Non-Toxic | > 32 | > 32 | inhibition (Macrophage cell line [14]): inactive; minimal effective concentration (Klebsiella pneumoniae [22]): > 32 µM; minimal effective concentration (Escherichia coli [23]): > 32 µM; minimal effective concentration (Streptococcus pyogenes [24]): > 32 µM; Activity (Enterococcus faecium [25]): Non-Toxic; minimal effective concentration (Pseudomonas aeruginosa [26]): > 32 µM; IC50 (Macrophage cell line [27]): 53 µM; minimal effective concentration (Enterococcus faecium [28]): 16 µM; minimal effective concentration (Streptococcus pyogenes [29]): > 32 µM; Activity (Macrophage cell line [30]): Non-Toxic; minimal effective concentration (Streptococcus pyogenes [31]): 16 µM; Activity (Escherichia coli [32]): Non-Toxic |
| O=C(O)c1ccnc(-c2ccccc2)c1O | 4 | Non-Toxic | > 32 | 16 | > 32 | 0.5 | 0.25 | > 32 | 4 | > 32 | > 32 | > 32 | 4 | Non-Toxic | Non-Toxic | > 32 | 2 | Non-Toxic | 8 | > 32 | minimal effective concentration (Klebsiella pneumoniae [22]): > 32 µM; minimal effective concentration (Escherichia coli [23]): > 32 µM; minimal effective concentration (Streptococcus pyogenes [24]): > 32 µM; Activity (Enterococcus faecium [25]): Non-Toxic; minimal effective concentration (Pseudomonas aeruginosa [26]): 4 µM; IC50 (Macrophage cell line [27]): > 100 µM; minimal effective concentration (Enterococcus faecium [28]): 1 µM; minimal effective concentration (Streptococcus pyogenes [29]): 2 µM; Activity (Macrophage cell line [30]): Non-Toxic; inhibition (Macrophage cell line [33]): inactive; minimal effective concentration (Streptococcus pyogenes [31]): 0.5 µM; Activity (Escherichia coli [32]): Non-Toxic |

— ChEMBL document CHEMBL4257522, “Synthesis and preliminary anti-inflammatory and anti-bacterial evaluation of some diflunisal aza-analogs” (Medchemcomm, 2018)
